From patent publication US9216181B2 (Southwest Research Institute, priority 2011, dated 2015) come the findings set out here.

In experiment [1] the test system is BMP-2. Briefly: Real time PCR of BMP-2 gene expression in human MSC (Cells-to-Ct). The format is cell-based. The following applies: BMP-2 mRNA, hMSC, 5-10 μM, 24 hours, vs untreated; positive control compounds (Table 1).
The test system of a further experiment is BMP2. Briefly: Quantitative PCR (TaqMan, ΔΔCt) of BMP2 in human mesenchymal stem cells. In kind it is cell-based. The following applies: Homo sapiens, Mesenchymal stem cells; BMP2 mRNA, hMSC, 10 μM, vs untreated, 18S reference; positive control compounds (Table 1); read-out: q-PCR Fold increase. A general note: Quantitative PCR measures a nucleic acid by following its amplification.

Experiment [2] concerns BMP-2. Description: BMP-2 fold change of JHU library compounds, confirmed by qPCR. In kind it is cell-based, human. The following applies: non-treated = 1.00.
A further experiment has as its system C3H10T1/2 cells. Description: Visual observation of morphological differentiation of C3H10T1/2 MSC. The following applies: enhanced medium withdrawn before addition. In kind it is cell-based, mouse. As for the experimental part:
The C3H10T1/2 cells were grown in an enhanced growth medium of BGjb (Irvine Scientific, Santa Ana, Calif.).

Experiment [3] deals with BMP-2. Briefly: Study II real time PCR, BMP-2 up-regulation in mesenchymal stem cells. The format is cell-based, human. The following applies: hMSC, 24 hour, 2.5, 5 and 10 μM. As for the experimental part: The testing procedure follows.
Cells based assays are done using 6 wells tissue culture plates, seeded with human mesenchymal stem cells (MSC) from Lonza, culture at 80% density. After seeding cells are treated with selected compounds at 10 μM, 5 μM and 2.5 μM for a 24 hour period, mRNA is collected using Qiagen kit RNAeasy kit and cDNA is prepared with same Qiagen kit, RT-PCR is done using kit from SABiosciences to measure gene expression for BMP2, 4 and 7 and run in Applied Biosystems Step One Plus. The protocol for mRNA isolation is described below.
Human mesenchymal stem cell growth medium passage 3 plated in a 6 well plate at 2.5×10^5 cells/well in hMSC Basal Medium+BulletKit (50 ml Growth Supplement, 10 ml L-Glutamine and 0.5 ml Gentamicin Sulfate Amphotericin-B) for 24 hrs. The compounds to be tested were added and after 24 hrs the media was aspirated, rinsed well once with PBS, and aspirated again. 350 ul of Lysis Buffer was added and the cells were stored at −20° C.
The lysate was homogenized by pipetting the lysate directly into a QIA shredder spin column placed in a 2-mL collection tube, and centrifuge for 2 min at full speed. 70% ethanol was added (1 vol. or […]) to the homogenized lysate (now at the bottom of the collection tube), and mixed well by pipetting. Up to 700 μL of the sample was transferred, including any precipitate that may have formed, to an RNeasy spin column placed in a 2-mL collection tube. This was centrifuged for 15 seconds at full speed. 700 μL of Buffer RW1 was added to the RNeasy spin column. This was centrifuged for 15 seconds at full speed to wash the spin column membrane.
500 μL of Buffer RPE was added to the RNeasy spin column and centrifuged for 15 seconds at full speed. The flow through was discarded. 500 μL of Buffer RPE was added to the RNeasy spin column and centrifuged for 2 minutes at full speed to wash the spin column membrane. The RNeasy spin column was removed from the collection tube and the flow-through was discarded.
The RNeasy spin column was placed in a new 2-mL collection tube and centrifuged for 1 minute at full speed. The RNeasy spin column was removed from the collection tube, and the flow-through was discarded. The RNeasy spin column was placed in a new 1.5-mL collection tube. 30-50 μL of RNase-free water was added directly to the spin column membrane and this was centrifuged for 1 minute at full speed to elute the RNA.

The subject of a further experiment is murine calvaria bone. Description: Anabolic assay using murine calvaria, histology (Study II). The format is cell-based, mouse. The following applies: calvaria of 4 day old pups, 5-20 μM, day 4 and day 7, 10× microscopy. As for the experimental part: To investigate the biological effects on bone of the compounds from the PCR assays a number of assays were performed using murine calvaria bone as follows. Following procedures similar to those outlined above in Study I, murine calvaria bone was removed from 4 day old pups form CD-1 time pregnant mice from Harlan (15 day gestation at time of arrival). The pups were decapitated with scissors after dipping the pups in 95% ethanol. The scalp was then removed. The heads were placed in a Petri dish with BGJ medium. The calvaria bones were cut using curved scissors to make a cut along the suture of the calvaria bone and the two parts were carefully removed from the brain. The calvaria were trimmed avoiding the suture area. The collected tissue was placed into media (3 bones per group) including BGJ+L-Glutamine with 1% Pen/Strep and 1% BSA. The dish including the bones was placed into a 37° C. and 5% CO2 incubator.
The selected compounds were prepared in a solution of dimethyl sulfoxide (DMSO) to form stock solutions of each compound, with the exception of terfenadine, which was prepared in ethanol. Specifically, a 10 mM stock solution was prepared for PS1, a 25 mM stock solution was prepared for carebastine and a 50 mM stock solution was prepared for ebastine, #6 terfenadine, fexofenadine and astemizole. […]

Consider `CC[C@H](C)C(=O)O[C@H]1C[C@@H](C)C=C2C=C[C@H](C)[C@H](CC[C@@H]3C[C@@H](O)CC(=O)O3)[C@H]21` [Lovastatin], for which, in the experiment with BMP-2 [1], the “RT PCR Fold increase” value is given as 59.9 fold. The fold induction at 10 µM in the experiment on BMP2 was 10.7; in the experiment on BMP-2 [2] (Homo sapiens, read-out: Fold change (BMP-2), control compounds at 10 μM), 18. Moreover, the “Fold change (BMP-2)” value with BMP-2 [2] (JHU library compounds) was 182.00 fold. In the experiment on C3H10T1/2 cells, the “morphological changes by visual observation” value was “generated more elongated looking cells with slowed cell proliferation”.
For `CC(C)(C(=O)O)c1ccc(C(=O)CCCN2CCC(OC(c3ccccc3)c3ccccc3)CC2)cc1` [Carebastine], the “fold change (PCR)” value in the experiment with BMP-2 [3] is reported as ≤ 1 fold. For the same compound, the “activity in bone calvaria assay / effect on BMP-2 gene expression, qualitative histology” value in the experiment with murine calvaria bone was “relatively active”.
